Literature values, collected in patent US11478445B2, “Method for treating acute myeloid leukemia” (Bionomics Limited, priority 2017, dated 2022).

What was measured:
[1] = tested on: KG1 cells; conditions: Petit et al. 2008, Madlambayan et al. 2010; cited from earlier work
[2] = tested on: KG1 cells; conditions: Petit et al. 2008; cited from earlier work

Row | SMILES | total ROS levels [1] | cell cycle [2]
1 | COc1ccc(/C=C\c2cc(OC)c(OC)c(OC)c2)cc1OP(=O)(O)O [combretastatin-A4-P] | increase in total ROS levels | induces G2/M cell cycle arrest
2 | COc1ccc(/C=C\c2cc(OC)c(OC)c(OC)c2)c(O)c1O [OXi4500, combretastatin-A1] | increase in total ROS levels | 
